This note sets out measurements from article PMC8648872, “A host-directed macrocyclic peptide therapeutic for MDR gram negative bacterial infections” (Scientific Reports, 2021).

Where a SMILES comes first, the peptide text is derived from it. Bridges are numbered along the chain shown (N, C = ends). Bounds are passed on as bounds.

Data set [1] has as its system Kp-1705 (K. pneumoniae BAA-1705). As to the kind of experiment: Kp-1705 bacteremic sepsis, survival. The data set is classed as in vivo, BALB/c mice. The conditions noted are these: for long term (≥ 28 days) survival: Kp-1705 i.p. in BALB/c mice. The protocol:
BALB/c mice (Jackson Laboratories) 8–10 weeks of age were acclimated (3–5 to a cage for at least 5 days prior to infection) in a thermostatically controlled room with 12 h light/dark cycle. Cryopreserved K. pneumoniae cells were thawed and adjusted to a density of 6–10 × 10^8 CFU/ml, confirmed by plating on trypticase soy agar (TSA) plates. E. coli BAA-2340 was grown to log-phase in trypticase soy broth, pelleted, washed with PBS, and resuspended in PBS at 0.5–1 × 10^9 CFU/ml. Mice were infected by i.p. injection of 2–5 × 10^8 CFU of Kp-1705 or 3–6 × 10^7 CFU of E. coli BAA-2340 using a 28 g needle in a volume of 0.5 ml. Post-infection, mice were observed three times a day for at least 4 days and then daily for 28 days. Mice were euthanized when they became moribund. All experiments used both male and female mice and were repeated at least twice.

Data set [2] has as its system human whole blood. As to the kind of experiment: Cytokine release by human whole blood incubated with live Kp-1705. The data set is classed as cell-based. As to conditions: human whole blood 1:10 in RPMI-1640, 1000 CFU/ml Kp-1705, 4 h, 37 °C, ELISA. The protocol: Log-phase […] grown in TSB were pelleted, washed twice in PBS, and suspended to 1 × 10^5 CFU/ml in RPMI-1640. EDTA-anticoagulated blood collected from a healthy adult human donor was incubated at a final dilution of 1:10 in RPMI-1640 with 1000 CFU/ml of Kp-1705 and varied concentrations of MTD12813 for 4 h 37 °C in 5% CO2 with gentle rocking. Incubation supernatants were frozen at − 80 °C. TNF and IL-6 were quantified by ELISA (Invitrogen KHC3011, KHC0061).
In general terms: In an ELISA, binding on a coated surface is turned into a signal by an enzyme label.

A short description of data set [3]: Peptide stability in human EDTA plasma. The data set is classed as in vitro ADME. As to conditions: 90% (vol/vol) human EDTA-plasma, 37 °C, C18 RP-UPLC with PDA detector, read-out: peptide remaining intact. The protocol:
(§1) MTD12813 (final concentration of 100 µg/ml) was added to either 90% human EDTA plasma or 90% human serum and incubated at 37 °C for 48 h. Samples were processed by addition of 10% HOAc and 5% ACN (final concentrations) at time 0 and 48 h, and MTD12813 was quantified by C18 RP-HLPC on an Acquity H-Class UPLC with an analytical PDA detector using Empower 3 software (Waters). All samples were performed with technical replicates and analyzed by UPLC in duplicate and the experiment repeated once. […] A time 0 h sample was collected, and the remaining suspension incubated at 37 °C for 24 h. Samples were processed by addition of 5% formic acid/5% acetonitrile, vortexed, and clarified at 22,000×g for 10 min. Supernatant MTD12813 was then quantified by LC–MS/MS as described in PK section above. All samples were performed with technical replicates and analyzed by LC–MS/MS in duplicate.

The nature of data set [4]: Peptide stability in human serum. The data set is classed as in vitro ADME. As to conditions: 90% (vol/vol) human serum, 37 °C, C18 RP-UPLC with PDA detector, read-out: peptide remaining intact. The protocol:
as §1

Data set [5] in a line: Peptide stability with log-phase E. coli ATCC-BAA-2340 (bacterial proteases). The data set is classed as in vitro ADME. The conditions noted are these: suspension of log-phase E. coli ATCC-BAA-2340 bacteria, log-phase E. coli ATCC-BAA-2340, 50 mM HEPES, 37 °C, LC–MS/MS, read-out: MTD12813 found intact. The protocol:
as §1

In data set [6] the test system is Kp-1705. Nature of the data set: Viability and replication fitness of Kp-1705 at sub-MIC peptide. The data set is classed as cell-based, K. pneumoniae. The conditions noted are these: Kp-1705 (1 x 10^9 CFU/ml), 1 h with 1.25 µg/ml MTD12813; CFU on TSA, growth at A620. The method, then:
Cryopreserved Kp-1705 was suspended in PBS to a density of ca. 1 × 10^9 CFU/ml, and incubated with saline or 1.25 µg/ml MTD12813 at room temperature for 1 h. Mice (n = 26) were then infected i.p. with 500 µl of saline- or MTD12813- pretreated Kp-1705, and a third cohort (n = 12) received 500 µl i.p. of 1.25 µg/ml MTD12813 immediately following infection with saline treated Kp-1705. Five mice from each cohort were euthanized 4 h p.i., and peritoneal lavage was collected for bacterial burden determination and cytospin preparation. In vitro antibacterial activity of MTD12813 (1.25 μg/ml) -treated cells (1 h; 37 °C) was determined by plating saline or peptide treated cells on TSA plates. Growth kinetics of saline and MTD12813-treated cells was determined by diluting samples from the 1 h incubation mixtures 1:40 into TSB and monitoring growth (620 nm) for 5.5 h at 37 °C. Antibacterial activity of MTD12813 in PF was determined by i.p. injection of naïve male BALB/c mice (n = 5 per group) with 1.25 mg/kg of MTD12813 or saline i.p. (10 ml/kg). […] Peritoneal fluid was clarified by centrifugation at 1200×g and an aliquot used to quantify MTD12813 by LC–MS/MS, as described above. Antimicrobial activity was determined by incubating PF (9:1 vol/vol) with Kp-1705 at a final density of 3 × 10^7 CFU/ml. […]
replication fitness of Kp-1705. […] (a) Bacterial viability was quantified as CFU on TSA plates. […]

For `CC[C@H](C)[C@@H]1NC(=O)[C@@H]2CSSC[C@H](NC(=O)[C@H]([C@@H](C)CC)NC(=O)[C@@H]3CSSC[C@H](NC1=O)C(=O)N[C@@H](C(C)C)C(=O)NCC(=O)N[C@@H](CCCNC(=N)N)C(=O)NCC(=O)N3)C(=O)N[C@@H](C(C)C)C(=O)N[C@@H](CCCNC(=N)N)C(=O)N[C@@H](CCCNC(=N)N)C(=O)N[C@@H](CCCNC(=N)N)C(=O)N2` [MTD12813] (cyclo(CICVGRGCICVRRR); disulfide 1-10, 3-8), the “long term (≥ 28 days) survival” value in data set [1] (single i.p. dose 1.25 mg/kg 1 h p.i.) and in data set [1] (single i.p. dose 5 mg/kg 1 h p.i.) was 100% each time. Also, the “long term survival, timing of treatment” value is reported as “survived long term” in data set [1] (Kp-1705 i.p., single i.p. 1.25 mg/kg 1 h after infection (+1 h)); “survived long term” in data set [1] (Kp-1705 i.p., single i.p. 1.25 mg/kg 1 h before infection (−1 h)); “half” in data set [1] (Kp-1705 i.p., single i.p. 1.25 mg/kg 3 h after infection (+3 h), P = 3.9 × 10^–3); “nearly equivalent efficacy” in data set [1] (Kp-1705 i.p., single i.p. 1.25 mg/kg 3 h prior to infection (−3 h)). Further, in data set [1] (Kp-1705 i.p., single i.p. dose 0.5 mg/kg 1 h p.i., P = 1.1 × 10^–3), the “survival benefit versus saline” value is listed as “survival benefit was still statistically significant”. Also, in data set [2], the “release of TNF and IL-6” value is “concentration-dependently suppressed”. Moreover, the remaining at 48 h, 100 µg/ml in data set [3] and in data set [4] was greater than 95% throughout. In addition, in data set [5], the remaining at 24 h, 1.25 µg/ml came to 81.3 ± 2.1%. For the same molecule, in data set [6], the “bacterial viability and replication fitness” value is recorded as “no effect on bacterial viability or replication fitness”.
